Several values for one entry are separate records, joined by “and”; a condition that tells them apart may be missing. Equal values may be shown once. Inconclusive results and toxic doses are left out. How the source made its calls: active means survival T/C of 150% or more; inactive means T/C below 125% in these data.
System: P388 leukemia ip, CD2F1 mice, survival T/C
Assay: NCI In Vivo Anticancer Drug Screen. Data for tumor model P388 Leukemia (intraperitoneal) in CD2F1 (CDF1) mice
Settings: endpoint: median survival time, higher = longer survival
Summary of the method: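 Mice carrying the transplanted tumor received test compound or vehicle. Survival was recorded in each group, and the value is the treated-group measurement divided by that of the vehicle-treated control group.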

[1] = dose: 50.0 mg/kg/injection, schedule: Q01DX009 (ip), vehicle: saline with Tween-80
[2] = dose: 100.0 mg/kg/injection, schedule: Q01DX009 (ip), vehicle: saline with Tween-80
[3] = dose: 200.0 mg/kg/injection, schedule: Q01DX009 (ip), vehicle: saline with Tween-80
[4] = dose: 60.0 mg/kg/injection, schedule: Q01DX005 (ip), vehicle: saline with Tween-80
[5] = dose: 120.0 mg/kg/injection, schedule: Q01DX005 (ip), vehicle: saline with Tween-80
[6] = dose: 240.0 mg/kg/injection, schedule: Q01DX005 (ip), vehicle: saline with Tween-80
[7] = dose: 50.0 mg/kg/injection, schedule: Q04DX003 (ip), vehicle: saline with Tween-80
[8] = dose: 100.0 mg/kg/injection, schedule: Q04DX003 (ip), vehicle: saline with Tween-80
[9] = dose: 400.0 mg/kg/injection, schedule: Q04DX003 (ip), vehicle: saline with Tween-80
[10] = dose: 50.0 mg/kg/injection, schedule: Q01DX009 (ip), vehicle: Klucel (hydroxypropylcellulose) (HPC)
[11] = dose: 100.0 mg/kg/injection, schedule: Q01DX009 (ip), vehicle: Klucel (hydroxypropylcellulose) (HPC)
[12] = dose: 200.0 mg/kg/injection, schedule: Q01DX009 (ip), vehicle: Klucel (hydroxypropylcellulose) (HPC)
[13] = dose: 50.0 mg/kg/injection, schedule: Q01DX005 (ip), vehicle: Klucel (hydroxypropylcellulose) (HPC)
[14] = dose: 400.0 mg/kg/injection, schedule: Q01DX009 (ip), vehicle: Klucel (hydroxypropylcellulose) (HPC)

Measured: T/C

CC(O)CNc1n[nH]c(=O)c2ccccc12 (stereo not drawn)
inactive: [1] 101 % of control | [2] 104 % of control | [3] 94 % of control

O=[N+]([O-])c1oc2ccc3ccccc3c2c1CCO
inactive: [4] 97 % of control | [5] 110 % of control | [6] 117 % of control

O=[N+]([O-])c1ccc(OS(=O)(=O)/C=C/c2ccccc2)cc1
inactive: dose: 100.0 mg/kg/injection, schedule: Q01DX001 (ip), vehicle: Klucel (hydroxypropylcellulose) (HPC) 99 % of control | dose: 200.0 mg/kg/injection, schedule: Q01DX001 (ip), vehicle: Klucel (hydroxypropylcellulose) (HPC) 100 % of control | dose: 400.0 mg/kg/injection, schedule: Q01DX001 (ip), vehicle: Klucel (hydroxypropylcellulose) (HPC) 94 % of control

COc1cc(/C=C2\C(=O)C=C(C)CC2(C)C)ccc1O
inactive: [7] 95 % of control | [8] 90 % of control

Cc1ccc(NC(=S)SCc2ccccc2)cc1Cl
inactive: dose: 100.0 mg/kg/injection, schedule: Q04DX002 (ip), vehicle: saline 98 % of control | dose: 200.0 mg/kg/injection, schedule: Q04DX002 (ip), vehicle: saline 100 % of control | dose: 400.0 mg/kg/injection, schedule: Q04DX002 (ip), vehicle: saline 106 % of control

CCOC(=O)C(CC(=O)O)=C1c2ccccc2-c2ccccc21
inactive: [4] 104 % of control | [5] 113 % of control | [6] 107 % of control

CC(C)(C)OC(=O)C(N)C(F)C(=O)OC(C)(C)C (stereo not drawn)
inactive: dose: 25.0 mg/kg/injection, schedule: Q04DX003 (ip), vehicle: saline with Tween-80 96 % of control | [7] 101 % of control | [8] 99 % of control and 104 % of control | [9] 97 % of control

O=C1OC(c2ccccc2)CC1N1CCOCC1 (stereo not drawn)
inactive: [2] 100 % of control | dose: 100.0 mg/kg/injection, schedule: Q04DX003 (ip), vehicle: saline sonified 100 % of control | [3] 100 % of control | dose: 400.0 mg/kg/injection, schedule: Q01DX009 (ip), vehicle: saline with Tween-80 100 % of control | dose: 400.0 mg/kg/injection, schedule: Q04DX003 (ip), vehicle: saline sonified 89 % of control

COc1ccccc1C1CC(c2ccccc2)=Nc2ccccc2S1 (stereo not drawn)
inactive: [10] 96 % of control | [11] 100 % of control | [12] 101 % of control

O=C(O)c1ccccc1N=N/C(=N\Nc1ccccc1C(=O)O)c1cccc2cccnc12
inactive: [8] 103 % of control | dose: 200.0 mg/kg/injection, schedule: Q04DX003 (ip), vehicle: saline with Tween-80 106 % of control | [9] 97 % of control

CN(C)c1ccc(N/C=C/C(=O)c2ccccc2O)cc1
inactive: dose: 100.0 mg/kg/injection, schedule: Q01DX001 (ip), vehicle: other 103 % of control | dose: 200.0 mg/kg/injection, schedule: Q01DX001 (ip), vehicle: other 100 % of control | dose: 400.0 mg/kg/injection, schedule: Q01DX001 (ip), vehicle: other 96 % of control

O=c1c2cc(F)ccc2nnn1-c1ccccc1
inactive: dose: 12.5 mg/kg/injection, schedule: Q01DX009 (ip), vehicle: suspension in saline 88 % of control | dose: 25.0 mg/kg/injection, schedule: Q01DX009 (ip), vehicle: suspension in saline 98 % of control | dose: 50.0 mg/kg/injection, schedule: Q01DX009 (ip), vehicle: saline 86 % of control | dose: 50.0 mg/kg/injection, schedule: Q01DX009 (ip), vehicle: suspension in saline 107 % of control | dose: 200.0 mg/kg/injection, schedule: Q01DX009 (ip), vehicle: saline 90 % of control

OC1CC2CCC(C1)N2c1ccccc1 (stereo not drawn)
inactive: dose: 50.0 mg/kg/injection, schedule: Q01DX005 (ip), vehicle: saline 115 % of control | dose: 100.0 mg/kg/injection, schedule: Q01DX005 (ip), vehicle: saline 97 % of control

Cc1ccc(O)c(C(c2cc(C)ccc2O)c2ccccc2Cl)c1
inactive: [1] 108 % of control | [2] 108 % of control | [3] 103 % of control

Cc1ccc(S(=O)(=O)NCc2cccc(CNS(=O)(=O)c3ccc(C)cc3)c2)cc1
inactive: [1] 104 % of control | [2] 89 % of control | [3] 100 % of control

COc1cc([N+](=O)[O-])c2nccc(C)c2c1
inactive: dose: 25.0 mg/kg/injection, schedule: Q01DX009 (ip), vehicle: Klucel (hydroxypropylcellulose) (HPC) 100 % of control | [10] 101 % of control | [11] 101 % of control | [12] 104 % of control

CNC(=O)n1c(N)nc(-c2ccccc2)c1-c1ccccc1
inactive: dose: 12.5 mg/kg/injection, schedule: Q04DX002 (ip), vehicle: saline with Tween-80 115 % of control | dose: 25.0 mg/kg/injection, schedule: Q04DX002 (ip), vehicle: saline with Tween-80 115 % of control | dose: 50.0 mg/kg/injection, schedule: Q04DX002 (ip), vehicle: saline with Tween-80 117 % of control

COc1ccc(C2NC(=S)NC(=O)C2C#N)cc1OC (stereo not drawn)
inactive: [10] 98 % of control | [11] 98 % of control | [12] 95 % of control

CN(C)c1c([N+](=O)[O-])cc2[nH]cnc2c1[N+](=O)[O-]
inactive: dose: 3.12 mg/kg/injection, schedule: Q04DX003 (ip), vehicle: saline with Tween-80 103 % of control | dose: 6.25 mg/kg/injection, schedule: Q04DX003 (ip), vehicle: saline with Tween-80 103 % of control | dose: 12.5 mg/kg/injection, schedule: Q04DX003 (ip), vehicle: saline with Tween-80 105 % of control

O=C(CC1=NC2NN(c3ccccc3)C(=O)C2=C1CC(=O)c1ccc(Cl)c(Cl)c1)c1ccc(Cl)c(Cl)c1 (stereo not drawn)
inactive: dose: 60.0 mg/kg/injection, schedule: Q01DX005 (ip), vehicle: saline 99 % of control | dose: 120.0 mg/kg/injection, schedule: Q01DX005 (ip), vehicle: saline 100 % of control | dose: 240.0 mg/kg/injection, schedule: Q01DX005 (ip), vehicle: saline 107 % of control

CC(=O)Oc1c(C)c2c(O)c3c1C1=C(OCOC1=C(C)C3=O)C(C)=CC(C)(O)C(O)C(C)C(O)C1C(=O)OC(C(C)/C=C\C=C(C)C(=O)N2)C(C)C1O (stereo not drawn)
inactive: [13] 108 % of control | [10] 99 % of control | dose: 100.0 mg/kg/injection, schedule: Q01DX005 (ip), vehicle: Klucel (hydroxypropylcellulose) (HPC) 108 % of control | [11] 100 % of control | dose: 200.0 mg/kg/injection, schedule: Q01DX005 (ip), vehicle: Klucel (hydroxypropylcellulose) (HPC) 108 % of control | [12] 104 % of control | [14] 103 % of control

C=C1OC(CC(C)C)=C(C(=O)OC(C)(C)C)C1C (stereo not drawn)
inactive: dose: 100.0 mg/kg/injection, schedule: Q01DX001 (ip), vehicle: saline with Tween-80 99 % of control | dose: 200.0 mg/kg/injection, schedule: Q01DX001 (ip), vehicle: saline with Tween-80 99 % of control | dose: 400.0 mg/kg/injection, schedule: Q01DX001 (ip), vehicle: saline with Tween-80 100 % of control

CN1c2ccccc2N=Cc2c1oc1ccc3ccccc3c1c2=O
inactive: dose: 12.5 mg/kg/injection, schedule: Q01DX005 (ip), vehicle: Klucel (hydroxypropylcellulose) (HPC) 96 % of control | dose: 25.0 mg/kg/injection, schedule: Q01DX005 (ip), vehicle: Klucel (hydroxypropylcellulose) (HPC) 103 % of control | [13] 92 % of control

CN(C)CCOC(=O)Nc1ccccc1C(F)(F)F
inactive: [4] 99 % of control | [5] 95 % of control

O=C1NC(=S)S/C1=C\c1ccncc1
inactive: [10] 100 % of control and 110 % of control and 116 % of control | [11] 106 % of control (2×) and 114 % of control | [12] 98 % of control and 121 % of control and 91 % of control | [14] 106 % of control
